According to US20250320202A1, “PRMT5 INHIBITOR, PREPARATION METHOD THEREFOR, AND PHARMACEUTICAL USE THEREOF” (Abbisko Therapeutics Co., Ltd., priority 2022, published 2025):

Tests used:
[1] = tested on: HCT116 MTAP wild-type cells; test: Human colon cancer HCT116 cell proliferation inhibition test (CellTiter-Glo, 6 days), MTAP wild-type cells; assay type: cell-based; conditions: HCT-116, 144 h
Experimental: (§1) 1. HCT116 MTAP knockout and MTAP wild-type cells were plated in 96-well flat bottom plates, and cultured overnight with McCoy's 5A medium containing 10% fetal bovine serum+1% penicillin-streptomycin at 37° C. and 5% CO2.
(§2) 2. On the next day, the compound was dissolved with DMSO, diluted with DMSO and medium successively and transferred to the cell plate. The final concentration of the compound was 10 μM, the compound was diluted 4 times, with 9 concentration gradients, and DMSO control was added.
(§3) 3. Cells that have not been treated with the compound were removed. CellTiter-Glo Luminescent Cell Viability Assay (Promega) was used to detect cell viability, the operation was performed with reference to the package insert of the kit, and then the cell plate was placed on EnVision Multilabel Reader to detect the cold light signal.
(§4) 4. Meanwhile, the cell plate treated with the compound was cultured at 37° C. and 5% CO2 for 6 consecutive days.
(§5) 5. Then, CellTiter-Glo was also used to detect cell viability.
(§6) 6. Finally, the four-parameter dose-response curve module of GraphPad Prism v 9.2.0 software was used to plot the dose-response curve and calculate the IC50 for proliferation inhibition (unit: nM).

[2] = tested on: HCT116 MTAP knockout cells; test: Human colon cancer HCT116 cell proliferation inhibition test (CellTiter-Glo, 6 days), MTAP knockout cells; assay type: cell-based; conditions: HCT-116, 144 h
Experimental: as §1, §2, §3, §4, §5, §6

Structure (SMILES) | IC50 [1] [nM] | IC50 [2] [nM]
C[C@H]1OCc2c1c(N)nc1cc(F)c(C(=O)N(c3cnn(C)c3)[C@@H]3COc4cc(C(F)(F)F)ccc43)cc21 [Example 202, (R)-4-amino-7-fluoro-3-methyl-N-(1-methyl-1H-pyrazol-4-yl)-N-((S)-6-(trifluoromethyl)-2,3-dihydrobenzofuran-3-yl)-1,3-dihydrofuro[3,4-c]quinolin-8-carboxamide] | 36 | 2
Cn1ncc2c(N)nc3cc(F)c(C(=O)N(c4cnsc4)[C@@H]4CCc5cc(C(F)(F)F)ccc54)cc3c21 [Example 203, (R)-4-amino-7-fluoro-N-(isothiazol-4-yl)-1-methyl-N-(5-(trifluoromethyl)-2,3-dihydro-1H-inden-1-yl)-1H-pyrazolo[4,3-c]quinolin-8-carboxamide] | 104 | 9
Nc1nc2ccc(C(=O)N(c3cnsc3)[C@@H]3CCc4cc(C(F)(F)F)ccc43)cc2c2cnccc12 [Example 204, (R)-5-amino-N-(isothiazol-4-yl)-N-(5-(trifluoromethyl)-2,3-dihydro-1H-inden-1-yl)benzo[c][2,6]naphthyridin-9-carboxamide] | 293 | 6
Cn1cc(N(C(=O)c2cc3c(cc2F)nc(N)c2cnn(C)c23)[C@@H]2COc3cc(C(F)(F)F)ccc32)cn1 [Example 205, (S)-4-amino-7-fluoro-1-methyl-N-(1-methyl-1H-pyrazol-4-yl)-N-(6-(trifluoromethyl)-2,3-dihydrobenzofuran-3-yl)-1H-pyrazolo[4,3-c]quinolin-8-carboxamide] | 64 | 0.8
Cn1cc(N(C(=O)c2cc3c(cc2F)nc(N)c2cnn(C)c23)[C@H]2COc3cc(C(F)(F)F)ccc32)cn1 [Example 206, (R)-4-amino-7-fluoro-1-methyl-N-(1-methyl-1H-pyrazol-4-yl)-N-(6-(trifluoromethyl)-2,3-dihydrobenzofuran-3-yl)-1H-pyrazolo[4,3-c]quinolin-8-carboxamide] | 8470 | 82
C[C@H]1OCc2c1c(N)nc1cc(F)c(C(=O)N(c3cnn(C)c3)[C@@H]3COc4nc(C(F)(F)F)ccc43)cc21 [Example 208, (R)-4-amino-7-fluoro-3-methyl-N-(1-methyl-1H-pyrazol-4-yl)-N-((S)-6-(trifluoromethyl)-2,3-dihydrofuro[2,3-b]pyridin-3-yl)-1,3-dihydrofuro[3,4-c]quinolin-8-carboxamide] | 130 | 4
Cn1cc(N(C(=O)c2cc3c4c(c(N)nc3cc2F)COC4)[C@@H]2COc3nc(C(F)(F)F)ccc32)cn1 [Example 209, (S)-4-amino-7-fluoro-N-(1-methyl-1H-pyrazol-4-yl)-N-(6-(trifluoromethyl)-2,3-dihydrofuro[2,3-b]pyridin-3-yl)-1,3-dihydrofuro[3,4-c]quinolin-8-carboxamide] | 279 | 4
Nc1nc2ccc(C(=O)N(c3ncccn3)C3CCc4cc(C(F)(F)F)ccc43)cc2c2cnccc12 (stereo not shown) [Example 210, 5-amino-N-(pyrimidin-2-yl)-N-(5-(trifluoromethyl)-2,3-dihydro-1H-inden-1-yl)benzo[c][2,6]naphthyridin-9-carboxamide] | 7400 | 63
Nc1nc2cc(F)c(C(=O)N(c3cscn3)[C@@H]3CCc4cc(C(F)(F)F)ccc43)cc2c2c1COC2 [Example 213, (R)-4-amino-7-fluoro-N-(thiazol-4-yl)-N-(5-(trifluoromethyl)-2,3-dihydro-1H-inden-1-yl)-1,3-dihydrofuro[3,4-c]quinolin-8-carboxamide] | 70 | 3
Cn1cc(N(C(=O)c2cc3c4c(c(N)nc3cc2F)COC4)[C@@H]2CCc3cc(C(F)(F)F)ccc32)cn1 [Example 220, (R)-4-amino-7-fluoro-N-(1-methyl-1H-pyrazol-4-yl)-N-(5-(trifluoromethyl)-2,3-dihydro-1H-inden-1-yl)-1,3-dihydrofuro[3,4-c]quinolin-8-carboxamide] | 335 | 17
C[C@H](c1ncccn1)N(C(=O)c1cc2c(cc1F)nc(N)c1cnn(C)c12)[C@@H]1CCc2cc(C(F)(F)F)ccc21 [Example 221, 4-amino-7-fluoro-1-methyl-N-((R)-1-(pyrimidin-2-yl)ethyl)-N-((R)-5-(trifluoromethyl)-2,3-dihydro-1H-inden-1-yl)-1H-pyrazolo[4,3-c]quinolin-8-carboxamide] | 1340 | 88
Nc1nc2ccc(C(=O)N(C3CC3)C3CCc4nc(C(F)(F)F)ccc43)cc2c2cnccc12 (stereo not shown) [Example 225, 5-amino-N-cyclopropyl-N-(2-(trifluoromethyl)-6,7-dihydro-5H-cyclopenta[b]pyridin-5-yl)benzo[c][2,6]naphthyridin-9-carboxamide] | 9470 | 286
Cn1cc(N(C(=O)c2ccc3nc(N)c4ccncc4c3c2)[C@@H]2CCc3cc(C(F)(F)F)ccc32)cn1 [Example 226, (R)-5-amino-N-(1-methyl-1H-pyrazol-4-yl)-N-(5-(trifluoromethyl)-2,3-dihydro-1H-inden-1-yl)benzo[c][2,6]naphthyridin-9-carboxamide] | 1950 | 50
CN(C(=O)c1ccc2nc(N)c3ccncc3c2c1)[C@@H]1CCc2cc(C(F)(F)F)ccc21 [Example 227, (R)-5-amino-N-methyl-N-(5-(trifluoromethyl)-2,3-dihydro-1H-inden-1-yl)benzo[c][2,6]naphthyridin-9-carboxamide] | 1070 | 85
Cn1cc(N(C(=O)c2cc3c(cc2F)nc(N)c2cnn(C)c23)[C@@H]2CCc3cc(C(F)(F)F)ccc32)cn1 [Example 229, (R)-4-amino-7-fluoro-1-methyl-N-(1-methyl-1H-pyrazol-4-yl)-N-(5-(trifluoromethyl)-2,3-dihydro-1H-inden-1-yl)-1H-pyrazolo[4,3-c]quinolin-8-carboxamide] | 61 | 3
Cc1cc2nc(N)c3ccncc3c2cc1C(=O)N(CC1CC1)[C@@H]1COc2nc(C(F)(F)F)ccc21 [Example 230, (S)-5-amino-N-(cyclopropylmethyl)-8-methyl-N-(6-(trifluoromethyl)-2,3-dihydrofuro[2,3-b]pyridin-3-yl)benzo[c][2,6]naphthyridin-9-carboxamide] | 145 | 13
Nc1nc2cc(F)c(C(=O)N(CC3CC3)[C@@H]3COc4nc(C(F)(F)F)ccc43)cc2c2cnccc12 [Example 231, (S)-5-amino-N-(cyclopropylmethyl)-8-fluoro-N-(6-(trifluoromethyl)-2,3-dihydrofuro[2,3-b]pyridin-3-yl)benzo[c][2,6]naphthyridin-9-carboxamide] | 604 | 15
Nc1nc2cc(Cl)c(C(=O)N(CC3CC3)[C@@H]3COc4nc(C(F)(F)F)ccc43)cc2c2cnccc12 [Example 232, (S)-5-amino-8-chloro-N-(cyclopropylmethyl)-N-(6-(trifluoromethyl)-2,3-dihydrofuro[2,3-b]pyridin-3-yl)benzo[c][2,6]naphthyridin-9-carboxamide] | 363 | 10
Cc1cc2nc(N)c3ccncc3c2cc1C(=O)N(CC1CC1)[C@@H]1CCc2nc(C(F)(F)F)ccc21 [Example 236, (R)-5-amino-N-(cyclopropylmethyl)-8-methyl-N-(2-(trifluoromethyl)-6,7-dihydro-5H-cyclopenta[b]pyridin-5-yl)benzo[c][2,6]naphthyridin-9-carboxamide] | 227 | 9
Nc1nc2cc(F)c(C(=O)N(CC3CC3)[C@@H]3CCc4nc(C(F)(F)F)ccc43)cc2c2cnccc12 [Example 237, (R)-5-amino-N-(cyclopropylmethyl)-8-fluoro-N-(2-(trifluoromethyl)-6,7-dihydro-5H-cyclopenta[b]pyridin-5-yl)benzo[c][2,6]naphthyridin-9-carboxamide] | 788 | 20
Nc1nc2cc(Cl)c(C(=O)N(CC3CC3)[C@@H]3CCc4nc(C(F)(F)F)ccc43)cc2c2cnccc12 [Example 238, (R)-5-amino-8-chloro-N-(cyclopropylmethyl)-N-(2-(trifluoromethyl)-6,7-dihydro-5H-cyclopenta[b]pyridin-5-yl)benzo[c][2,6]naphthyridin-9-carboxamide] | 264 | 14
CCN(C(=O)c1cc2c(cc1F)nc(N)c1cnn(C)c12)C1CCc2cc(C(F)(F)F)ccc21 (stereo not shown) [Reference Compound 1, reference compound] | 696 | 54
Cn1cc(N(Cc2ccc(C(F)(F)F)cn2)C(=O)c2cc3c(cc2F)nc(N)c2cnn(C)c23)cn1 [compound 3, reference compound] | 278 | 9
